pEC50, pIC50: −log10 of the molar value. ≈ marks a conversion by molar mass, not a printed value.
Assays:
[1] = Oral bioavailability in BALB/c mouse at 3 mg/kg measured upto 24 hrs; assay type: ADME, organism-based; conditions: in vivo
[2] = Volume of distribution at steady state in Sprague-Dawley rat at 1 mg/kg, iv measured upto 24 hrs; assay type: ADME, organism-based; conditions: in vivo, read-out: Vdss
[3] = Intrinsic clearance in rat hepatocytes assessed per 10^4 cells at 1 uM measured upto 120 mins by UPLC-MS/MS analysis; assay type: ADME, cell-based, Hepatocyte; conditions: 2 h
physchem = conditions: FaSSIF
Description: Thermodynamic solubility in FaSSIF at 1 mg incubated for 24 hrs by UPLC-MS/MS analysis

HT-1080 = assay: Antitumor activity against human HT-1080 cells xenografted in BALB/c nude mouse assessed as mean tumor growth inhibition at 1 mg/kg administered twice a day for 14 days; assay type: functional; conditions: HT-1080, 336 h, time 14 day, read-out: TGI
[4] = Oral bioavailability in Sprague-Dawley rat at 3 mg/kg measured upto 24 hrs; assay type: ADME, organism-based; conditions: in vivo, po, 3 mg/kg, 24 h
[5] = target: Receptor-interacting serine/threonine-protein kinase 3 (Homo sapiens, UniProt Q9Y572); assay: Inhibition of RIPK3 in human MOLM16 cells; assay type: cell-based
[6] = target: Phosphatidylinositol 4-phosphate 3-kinase C2 domain-containing subunit beta (Homo sapiens, UniProt O00750); assay: Inhibition of PIK3C2B in human MOLM16 cells; assay type: cell-based
[7] = Unbound Cmax in BALB/c mouse at 3 mg/kg, po and 1 mg/kg, iv measured upto 24 hrs; assay type: ADME, organism-based; conditions: in vivo
[8] = Unbound AUC in BALB/c mouse at 3 mg/kg, po measured upto 24 hrs; assay type: ADME, organism-based; conditions: in vivo
[9] = target: T1, Serine/threonine-protein kinase Nek1 (Homo sapiens, UniProt Q96PY6); assay: Inhibition of NEK1 in human MOLM16 cells; assay type: cell-based
T1 sequence (Q96PY6 whole entry): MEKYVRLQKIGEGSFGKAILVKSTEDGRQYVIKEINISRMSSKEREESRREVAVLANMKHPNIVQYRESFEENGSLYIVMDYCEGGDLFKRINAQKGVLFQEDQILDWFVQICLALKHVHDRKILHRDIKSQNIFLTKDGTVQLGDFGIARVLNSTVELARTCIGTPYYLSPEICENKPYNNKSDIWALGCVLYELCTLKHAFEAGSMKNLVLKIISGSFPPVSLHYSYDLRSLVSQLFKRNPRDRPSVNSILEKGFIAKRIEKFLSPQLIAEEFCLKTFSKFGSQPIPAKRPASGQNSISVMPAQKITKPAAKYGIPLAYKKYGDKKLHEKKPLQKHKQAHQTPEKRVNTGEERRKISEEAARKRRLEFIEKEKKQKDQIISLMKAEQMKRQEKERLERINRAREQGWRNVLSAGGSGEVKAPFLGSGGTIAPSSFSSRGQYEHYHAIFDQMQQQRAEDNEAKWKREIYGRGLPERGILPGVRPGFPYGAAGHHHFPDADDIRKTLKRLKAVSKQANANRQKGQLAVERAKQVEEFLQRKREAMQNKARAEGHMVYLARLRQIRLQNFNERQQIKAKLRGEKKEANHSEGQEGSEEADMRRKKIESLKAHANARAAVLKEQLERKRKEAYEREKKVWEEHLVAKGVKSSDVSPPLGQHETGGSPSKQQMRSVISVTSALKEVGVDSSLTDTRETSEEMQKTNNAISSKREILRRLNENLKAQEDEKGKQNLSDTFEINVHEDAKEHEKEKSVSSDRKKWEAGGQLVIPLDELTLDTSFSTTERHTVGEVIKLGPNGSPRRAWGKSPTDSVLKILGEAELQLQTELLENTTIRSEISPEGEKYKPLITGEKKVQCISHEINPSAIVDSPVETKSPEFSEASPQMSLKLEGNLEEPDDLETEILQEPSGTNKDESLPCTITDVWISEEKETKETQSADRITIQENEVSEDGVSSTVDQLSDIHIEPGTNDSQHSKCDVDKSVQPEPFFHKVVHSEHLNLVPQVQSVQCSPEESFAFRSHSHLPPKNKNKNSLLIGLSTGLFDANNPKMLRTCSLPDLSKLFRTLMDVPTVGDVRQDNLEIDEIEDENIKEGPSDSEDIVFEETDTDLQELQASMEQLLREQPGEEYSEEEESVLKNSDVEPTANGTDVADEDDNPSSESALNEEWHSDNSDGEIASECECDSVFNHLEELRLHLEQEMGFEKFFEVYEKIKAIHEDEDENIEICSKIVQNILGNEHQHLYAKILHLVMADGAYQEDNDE

[10] = target: T2, Eukaryotic translation initiation factor 2-alpha kinase 3 (Homo sapiens, UniProt Q9NZJ5); assay: Activation of PERK in HEK293 cells transfected with ATF4 response element preincubated for 30 mins followed by tunicamycin addition and measured after 6 hrs by One-Glo reagent based plate reader assay; assay type: cell-based
T2 sequence (Q9NZJ5 whole entry): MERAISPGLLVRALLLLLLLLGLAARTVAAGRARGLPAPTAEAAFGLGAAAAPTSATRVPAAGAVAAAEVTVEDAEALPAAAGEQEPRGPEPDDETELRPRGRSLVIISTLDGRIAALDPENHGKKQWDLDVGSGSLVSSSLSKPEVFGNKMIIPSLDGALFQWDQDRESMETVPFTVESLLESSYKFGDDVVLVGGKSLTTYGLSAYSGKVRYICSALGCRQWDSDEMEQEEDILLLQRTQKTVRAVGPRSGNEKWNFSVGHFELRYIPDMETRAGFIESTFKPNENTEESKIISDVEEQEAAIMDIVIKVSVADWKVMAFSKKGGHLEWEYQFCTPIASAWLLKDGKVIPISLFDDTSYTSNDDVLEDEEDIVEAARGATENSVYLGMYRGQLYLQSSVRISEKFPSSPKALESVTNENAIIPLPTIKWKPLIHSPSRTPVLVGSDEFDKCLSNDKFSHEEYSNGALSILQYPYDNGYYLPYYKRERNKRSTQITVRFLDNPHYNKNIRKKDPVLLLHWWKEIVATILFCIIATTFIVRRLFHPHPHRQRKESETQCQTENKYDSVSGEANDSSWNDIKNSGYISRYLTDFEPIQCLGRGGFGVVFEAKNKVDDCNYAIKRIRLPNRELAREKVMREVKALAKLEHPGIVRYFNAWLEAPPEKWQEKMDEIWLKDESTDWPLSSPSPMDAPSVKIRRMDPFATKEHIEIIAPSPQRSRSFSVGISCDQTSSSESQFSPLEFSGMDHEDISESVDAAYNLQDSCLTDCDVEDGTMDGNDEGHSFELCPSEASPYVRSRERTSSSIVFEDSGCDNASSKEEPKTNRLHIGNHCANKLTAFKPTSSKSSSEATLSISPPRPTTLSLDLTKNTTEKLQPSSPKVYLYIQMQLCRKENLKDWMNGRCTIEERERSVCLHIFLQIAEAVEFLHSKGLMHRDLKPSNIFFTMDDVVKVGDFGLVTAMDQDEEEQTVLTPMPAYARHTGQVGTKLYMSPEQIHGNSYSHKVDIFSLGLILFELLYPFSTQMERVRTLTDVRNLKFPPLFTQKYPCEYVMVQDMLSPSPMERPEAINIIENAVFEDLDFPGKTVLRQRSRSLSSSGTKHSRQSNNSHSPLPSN

Sequence of Phosphatidylinositol 4-phosphate 3-kinase C2 domain-containing subunit beta (O00750 whole entry, the tested form may be a part): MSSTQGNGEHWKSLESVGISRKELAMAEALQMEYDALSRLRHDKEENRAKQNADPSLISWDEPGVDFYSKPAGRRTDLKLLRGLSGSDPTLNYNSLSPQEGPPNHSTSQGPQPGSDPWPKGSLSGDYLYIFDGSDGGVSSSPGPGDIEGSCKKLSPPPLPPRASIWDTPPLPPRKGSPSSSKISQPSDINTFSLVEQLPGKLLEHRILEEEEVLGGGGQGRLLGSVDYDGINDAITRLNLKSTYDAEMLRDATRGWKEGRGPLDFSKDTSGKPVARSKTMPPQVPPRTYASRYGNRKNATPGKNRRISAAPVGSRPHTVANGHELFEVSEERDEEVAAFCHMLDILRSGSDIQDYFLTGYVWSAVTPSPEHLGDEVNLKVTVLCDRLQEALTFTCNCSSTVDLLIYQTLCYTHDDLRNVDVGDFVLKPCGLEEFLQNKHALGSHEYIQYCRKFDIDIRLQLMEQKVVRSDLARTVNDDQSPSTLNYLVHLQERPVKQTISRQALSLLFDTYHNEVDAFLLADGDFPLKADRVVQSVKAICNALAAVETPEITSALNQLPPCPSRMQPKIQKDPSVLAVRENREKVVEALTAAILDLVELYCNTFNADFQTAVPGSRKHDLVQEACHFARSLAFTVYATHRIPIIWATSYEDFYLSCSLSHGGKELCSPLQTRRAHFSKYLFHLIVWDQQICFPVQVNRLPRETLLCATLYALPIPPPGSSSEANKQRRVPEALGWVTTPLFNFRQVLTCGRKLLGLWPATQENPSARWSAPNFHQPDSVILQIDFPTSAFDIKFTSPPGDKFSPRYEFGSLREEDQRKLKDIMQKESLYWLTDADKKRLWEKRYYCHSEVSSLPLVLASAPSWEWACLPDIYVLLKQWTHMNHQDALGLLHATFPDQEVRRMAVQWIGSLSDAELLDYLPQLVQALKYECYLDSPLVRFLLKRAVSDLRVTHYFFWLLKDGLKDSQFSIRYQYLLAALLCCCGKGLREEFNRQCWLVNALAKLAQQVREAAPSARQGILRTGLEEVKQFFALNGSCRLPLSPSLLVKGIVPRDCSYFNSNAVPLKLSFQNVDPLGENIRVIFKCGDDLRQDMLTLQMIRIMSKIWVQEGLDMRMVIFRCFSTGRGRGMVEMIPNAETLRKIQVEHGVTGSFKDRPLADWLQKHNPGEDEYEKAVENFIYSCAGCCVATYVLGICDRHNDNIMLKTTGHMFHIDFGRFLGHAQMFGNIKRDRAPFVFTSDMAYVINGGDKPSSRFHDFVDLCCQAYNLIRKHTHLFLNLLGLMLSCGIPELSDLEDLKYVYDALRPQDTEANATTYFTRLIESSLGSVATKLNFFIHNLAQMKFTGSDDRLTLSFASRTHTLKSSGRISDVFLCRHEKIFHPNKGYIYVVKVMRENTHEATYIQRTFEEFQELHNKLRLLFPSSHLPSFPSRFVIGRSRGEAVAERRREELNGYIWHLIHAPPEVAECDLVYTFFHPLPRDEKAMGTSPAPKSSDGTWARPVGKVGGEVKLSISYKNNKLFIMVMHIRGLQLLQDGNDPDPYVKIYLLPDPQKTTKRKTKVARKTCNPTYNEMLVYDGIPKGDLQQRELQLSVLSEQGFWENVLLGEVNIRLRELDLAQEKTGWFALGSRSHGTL
Sequence of Receptor-interacting serine/threonine-protein kinase 3 (Q9Y572 whole entry, the tested form may be a part): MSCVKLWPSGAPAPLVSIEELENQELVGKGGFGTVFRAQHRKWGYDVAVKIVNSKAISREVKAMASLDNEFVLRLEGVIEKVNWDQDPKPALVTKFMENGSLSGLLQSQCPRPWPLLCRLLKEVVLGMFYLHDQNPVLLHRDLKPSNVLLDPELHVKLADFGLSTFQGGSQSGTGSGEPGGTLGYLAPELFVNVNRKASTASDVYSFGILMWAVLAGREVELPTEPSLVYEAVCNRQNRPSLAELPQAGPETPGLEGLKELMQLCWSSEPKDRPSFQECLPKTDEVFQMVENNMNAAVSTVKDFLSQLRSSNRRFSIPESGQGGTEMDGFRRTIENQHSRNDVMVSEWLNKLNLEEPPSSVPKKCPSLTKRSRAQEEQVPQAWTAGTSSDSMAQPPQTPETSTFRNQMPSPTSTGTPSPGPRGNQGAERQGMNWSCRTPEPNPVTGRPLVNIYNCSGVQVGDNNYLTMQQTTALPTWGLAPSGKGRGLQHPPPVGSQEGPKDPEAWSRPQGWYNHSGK

SMILES: CNC(=O)c1ncn2cc(-c3c(F)ccc(NS(=O)(=O)c4cc(Cl)cnc4OC)c3F)ncc12
- F [1]: 66%
- Vd [2]: 0.093 L/kg
- CLH [3]: 3.5 µL/min
- solubility thermodynamic at 24 h (physchem): 1.8 µM (≈ 0.916 µg/mL)
- inhibition in vivo at 1 mg/kg (HT-1080): 80%
- F [4]: 29%
- pIC50 [5]: 5.05
- pIC50 [6]: 5.47
- fCmax [7]: 52 nM
- fAUC [8]: 130 nM·h
- pIC50 [9]: 5.03
- pEC50 [10]: 5.16
